Values after ≈ are worked out from the molar mass of the structure shown. Bridge positions count the residues as written; N and C are the ends. Square brackets hold non-standard residues; d marks the D form. Peptide text beside a SMILES is read from it.
Legend:
[1] = test system: S. aureus ATCC 43300, a methicillin-resistant strain (MRSA); assay type: cell-based, Staphylococcus aureus
Method: Thus, 12 was further tested against S. aureus ATCC 43300, a methicillin-resistant strain (MRSA), and compared with the linear precursor 9. […] No growth was observed after 24 h. Peptide 9 was bactericidal as well, by killing MRSA within 10 min, but at a higher concentration (25 μM).
The bacterial strains used in the antimicrobial assays were the Gram-negative E. coli ATCC 25922, P. aeruginosa ATCC 27853, A. baumannii ATCC 19606, the Gram-positive S. aureus ATCC 25923, S. epidermidis ATCC 12228, and B. megaterium Bm11. Methicillin-resistant S. aureus (MRSA) ATCC 43300 was obtained from Culture Collection Center of School of Basic Medical Sciences of Lanzhou University (China).
The determination of MICs was conducted as previously reported.[61] Aliquots of 50 μL of bacterial culture appropriately diluted were added to each well of a 96-well plate to reach a final cell density of 1 × 10^6 CFU/mL and a final peptide concentration ranging from 100 to 0.78 μM (final volume 100 μL).

[2] = test system: HaCaT cells (human immortalized keratinocytes); assay: Cytotoxicity, MTT assay; assay type: cell-based
Method: In particular, the cytotoxicity was evaluated by the 3-(4,5-dimethylthiazol-2-yl)-2,5-diphenyltetrazolium bromide (MTT) assay and is expressed as the percentage of viability of peptide-treated cells compared to that of untreated control cells. As expected, after 2 and 24 h treatments, the cell viability decreased in a concentration-dependent manner for all peptides (Figure 2).
Figure 2 Viability of peptide-treated HaCaT cells evaluated by MTT assay at 2 h (a) and 24 h (b). All data are expressed as a percentage with respect to the untreated control cells and are the mean of three independent experiments ± standard error of the mean (SEM).
The human immortalized keratinocytes HaCaT cells (AddexBio, San Diego, CA) were cultured in Dulbecco’s modified Eagle’s medium containing 4 mM glutamine (DMEMg), supplemented with 10% heat-inactivated fetal bovine serum (FBS) and 0.1 mg/mL of penicillin and streptomycin, at 37 °C and 5% CO2, in 25 or 75 cm^2 flasks.
The quantification of cell viability was performed by the in vitro MTT [3-(4,5-dimethylthiazol-2-yl)-2,5-diphenyltetrazolium bromide] assay, as previously reported,[77] measuring the conversion of the soluble yellow dye MTT to insoluble purple formazan by mitochondrial dehydrogenases. More precisely, 4 × 10^4 HaCaT cells, suspended in DMEMg supplemented with 2% FBS without antibiotics, were plated in each well of the 96-well plate. After overnight incubation at 37 °C and 5% CO2, the medium of each well was replaced by DMEMg containing the peptide at different concentrations, as indicated. Controls were HaCaT cells not treated with the peptide. After 2 and 24 h of incubation at 37 °C and 5% CO2, the medium was discarded; 0.5 mg/mL of MTT in Hank’s buffer was added to each well, and the plate was incubated for further 4 h. Acidified isopropanol was then added to dissolve formazan crystals, and the absorbance of each well at 570 nm was measured using a microplate reader (Infinite M200; Tecan, Salzburg, Austria). The purple color intensity is directly proportional to the number of viable cells, which was expressed as a percentage compared to that of untreated control cells (100%).

[3] = Thioflavin T aggregation in LUVs; assay type: physicochemical; settings: tested 5–50 μM, 25 °C, pH 7.4, ThT emission 482 nm; for peptide concentration at which oligomerization (ThT fluorescence plateau) was observed: DOPE/DOPG/CL (63/23/12) LUVs; for peptide concentration at which aggregation (increase of ThT fluorescence) was observed: DOPG/CL (58/42) LUVs
From the text: We used large unilamellar vesicles (LUVs) made of phosphatidylethanolamine (DOPE), phosphatidylglycerol (DOPG), and cardiolipin (CL) (63/23/12) to mimic lipid composition of the cytoplasmic membrane of Gram-negative bacteria. Gram-positive membranes were otherwise mimicked using LUVs made of DOPG and CL (58/42).
TEXT PRINTED IN THE PICTURE: (c) 9: DOPG/CL mimicking Gram-positive membrane: θ222/ θ208: 1.7 | (c) 12: DOPG/CL mimicking Gram-positive membrane: θ222/ θ208: 2.6 | (c) 17: DOPG/CL mimicking Gram-positive membrane: θ222/ θ208: 1.9 | (f) 9: DOPE/DOPG/CL mimicking Gram-negative membrane: θ222/ θ208: 1.8 | (f) 12: DOPE/DOPG/CL mimicking Gram-negative membrane: θ222/ θ208: 2.1 | (f) 17: DOPE/DOPG/CL mimicking Gram-negative membrane: θ222/ θ208: 1.7
The fluorescent dye Thioflavin T (ThT) is widely used to quantify peptide aggregation in the presence of bacterial membranes represented by LUVs (Gram-positive, DOPG/CL, 58/42 ratio in moles; Gram-negative DOPG/DOPE/CL, 63/23/12 ratio in moles). Once lipid films were prepared as described above, they were hydrated with 100 mM NaCl, 10 mM Tris-HCl, […] ThT buffer, pH = 7.4, vortexed for 1 h, freeze-thawed six times, and extruded 10 times through polycarbonate membranes with 0.1 μm diameter pores.[80] Peptides were dissolved in water to have a stock solution of 2 mM. Peptide aggregation was quantified by treating LUVs with peptide concentrations of 5, 10, 15, 20, 30, and 50 μM. Fluorescence was measured before and after the addition of peptide at 25 °C using a Varian Cary Eclipse fluorescence spectrometer. ThT fluorescence emission was measured at 482 nm (slit width, 5 nm) after excitation at 450 nm (slit width, 10 nm). In the presence of aggregated peptides, ThT combines with them giving an excitation maximum at 450 nm and an increased emission at 482 nm.[62] Peptide aggregation was calculated as %A = (Ff – F0)/(Fmax – F0) × 100, where Ff indicates the value of fluorescence after peptide addition, F0 is the initial fluorescence in the absence of peptide, and Fmax is the fluorescence maximum obtained immediately after peptide addition.

in vitro = settings: male, human, 90% fresh human serum
Method: Peptides were incubated with 90% fresh human serum at 37 ± 1 °C within 12 h.[69] The percentage of intact peptide was monitored by calculating the peak area of the chromatogram from RP-HPLC analysis.
The peptide was incubated in a 1.5 mL eppendorf tube with human serum at a final concentration of 0.2 mM, and the mixture was incubated at 37 ± 1 °C for different periods (0.25, 0.75, 1.5, 2, 3, 4, 6, 7, 8, and 12 h). After the incubation period, an aliquot of reaction solution was taken and added MeCN (double volume respect to the aliquot) for the precipitation of serum proteins present in human serum. The produced cloudy solution was cooled (4 °C) for 15 min and then centrifuged at 13 000 rpm for 10 min to remove the serum protein as pellet. Then, the supernatant was analyzed by RP-UHPLC using a linear elution gradient from 10 to 90% MeCN (0.1% TFA) in water (0.1% TFA) over 20 min. A flow rate of 1 mL/min was employed, and the absorbance of the eluting peaks was detected at 220 nm. The proteolytic stability assay was repeated in triplicate.

SMILES	MIC S. aureus ATCC 43300 (MRSA) [1] [µM]	HaCaT cell viability ([2]; 25 μM, same profile after either 2 or 24 h) [%]	HaCaT cell viability ([2]; 50 μM, same profile after either 2 or 24 h) [%]	peptide concentration at which oligomerization (ThT fluorescence plateau) was observed [3] [µM]	peptide concentration at which aggregation (increase of ThT fluorescence) was observed [3] [µM]	half-life at 0.2 mM (in vitro) [h]	remaining at 1.5 h, 0.2 mM (in vitro) [%]	HaCaT cell viability ([2]; 2 h treatment, 25 μM, vs untreated control, mean of three independent experiments)	HaCaT cell viability ([2]; 2 h treatment, 50 μM, vs untreated control, mean of three independent experiments)	HaCaT cell viability ([2]; 24 h treatment (sentence continues from 50 μM), vs untreated control)
CC[C@H](C)[C@H](NC(=O)[C@H](CCCNC(=N)N)NC(=O)[C@@H]1CCC(=O)NCCCC[C@H](NC(=O)[C@H](Cc2ccccc2)NC(=O)[C@H](Cc2c[nH]c3ccccc23)NC(=O)[C@@H]2CCCN2C(=O)[C@@H](NC(=O)[C@@H](N)Cc2ccccc2)C(C)C)C(=O)N[C@@H](CCCCN)C(=O)N[C@@H](Cc2ccccc2)C(=O)N[C@H](CC(C)C)C(=O)N1)C(=O)N[C@@H](CC(C)C)C(N)=O [compound 12] (H-FVPWFKKF[dL]ERIL-NH2; lactam 6-10)	12.5 (≈ 21.3 µg/mL)	94	60	10	30	~6	~70	–	–	–
CC[C@H](C)[C@H](NC(=O)[C@H](CCCNC(=N)N)NC(=O)[C@@H]1CCCCn2cc(nn2)C[C@H](NC(=O)[C@H](Cc2ccccc2)NC(=O)[C@H](Cc2c[nH]c3ccccc23)NC(=O)[C@@H]2CCCN2C(=O)[C@@H](NC(=O)[C@@H](N)Cc2ccccc2)C(C)C)C(=O)N[C@@H](CCCCN)C(=O)N[C@@H](Cc2ccccc2)C(=O)NC(CC(C)C)C(=O)N1)C(=O)N[C@@H](CC(C)C)C(N)=O (stereo in doubt) [compound 17]	–	–	–	10	50	–	–	60–70%	less than 40%	less than 20%
